In publication PMC6364417, “Kinase inhibitor library screening identifies synergistic drug combinations effective in sensitive and resistant melanoma cells” (Journal of Experimental & Clinical Cancer Research : CR, 2019):

Assays:
Experiment in all cases: Kinase inhibitor library screening, PrestoBlue cell viability, 1 or 10 μM, 72 h
[1] = system: A375-XP cells (Vemurafenib-resistant); settings: for Cell viability in kinase inhibitor library screening, A375 XP, 1μΜ / Cell viability in kinase inhibitor library screening, A375 XP, 10μΜ: 72 h
[2] = system: A375-GP cells (Dabrafenib-resistant); settings: for cell viability (kinase inhibitor library screening) / Cell viability in kinase inhibitor library screening, A375 GP, 1μΜ / Cell viability in kinase inhibitor library screening, A375 GP, 10μΜ: A375 GP; for cell viability (kinase inhibitor library screening): in %; for Cell viability in kinase inhibitor library screening, A375 GP, 1μΜ / Cell viability in kinase inhibitor library screening, A375 GP, 10μΜ: 72 h
A375 cells (parental) = settings: for Cell viability in kinase inhibitor library screening, A375 Parental, 10μΜ / Cell viability in kinase inhibitor library screening, A375 Parental, 1μΜ: 72 h
[3] = system: 501Mel-XP cells (Vemurafenib-resistant); settings: for cell viability (kinase inhibitor library screening) / Cell viability in kinase inhibitor library screening, 501Mel XP, 1μΜ / Cell viability in kinase inhibitor library screening, 501Mel XP, 10μΜ: 501Mel XP, in %
[4] = system: 501Mel-GP cells (Dabrafenib-resistant); settings: for cell viability (kinase inhibitor library screening) / Cell viability in kinase inhibitor library screening, 501Mel GP, 1μΜ / Cell viability in kinase inhibitor library screening, 501Mel GP, 10μΜ: 501Mel GP, in %
[5] = system: IGR37-GP cells (Dabrafenib-resistant); settings: for Cell viability in kinase inhibitor library screening, IGR37 GP, 10μΜ / Cell viability in kinase inhibitor library screening, IGR37 GP, 1μΜ: 72 h
501Mel cells (parental) = settings: for cell viability (kinase inhibitor library screening) / Cell viability in kinase inhibitor library screening, 501Mel Parental, 1μΜ / Cell viability in kinase inhibitor library screening, 501Mel Parental, 10μΜ: 501Mel Parental, in %
Procedure, shortened: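 Kinase inhibitors added at two fixed concentrations; 72 h exposure; PrestoBlue readout; % viability vs untreated; n ≥ 2 per line.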

IGR37 cells (parental) = settings: for Cell viability in kinase inhibitor library screening, IGR37 Parental, 1μΜ / Cell viability in kinase inhibitor library screening, IGR37 Parental, 10μΜ: 72 h
[6] = system: IGR37-XP cells (Vemurafenib-resistant); settings: for Cell viability in kinase inhibitor library screening, IGR37 XP, 10μΜ / Cell viability in kinase inhibitor library screening, IGR37 XP, 1μΜ: 72 h

Structure (SMILES)	Cell viability in kinase inhibitor library screening, A375 XP, 1μΜ ([1]; A375 XP)	Cell viability in kinase inhibitor library screening, A375 XP, 10μΜ ([1]; A375 XP, 10μΜ)	Cell viability in kinase inhibitor library screening, A375 GP, 1μΜ ([2]; 1μΜ)	Cell viability in kinase inhibitor library screening, A375 GP, 10μΜ ([2]; 10μΜ)	Cell viability in kinase inhibitor library screening, A375 Parental, 10μΜ (A375 cells (parental); A375 Parental, 10μΜ)	Cell viability in kinase inhibitor library screening, A375 Parental, 1μΜ (A375 cells (parental); A375 Parental)	Cell viability in kinase inhibitor library screening, 501Mel XP, 1μΜ ([3]; 1μΜ, 72 h)	Cell viability in kinase inhibitor library screening, 501Mel XP, 10μΜ ([3]; 10μΜ, 72 h)	Cell viability in kinase inhibitor library screening, 501Mel GP, 1μΜ ([4]; 1μΜ, 72 h)	Cell viability in kinase inhibitor library screening, 501Mel GP, 10μΜ ([4]; 10μΜ, 72 h)	Cell viability in kinase inhibitor library screening, IGR37 GP, 10μΜ ([5]; IGR37 GP) [%]	Cell viability in kinase inhibitor library screening, IGR37 GP, 1μΜ ([5]; IGR37 GP, 1μΜ, in %)	Cell viability in kinase inhibitor library screening, 501Mel Parental, 1μΜ (501Mel cells (parental); 1μΜ, 72 h)	Cell viability in kinase inhibitor library screening, 501Mel Parental, 10μΜ (501Mel cells (parental); 10μΜ, 72 h)	Cell viability in kinase inhibitor library screening, IGR37 Parental, 1μΜ (IGR37 cells (parental); IGR37 Parental, in %)	Cell viability in kinase inhibitor library screening, IGR37 Parental, 10μΜ (IGR37 cells (parental); IGR37 Parental, 10μΜ, in %)	Cell viability in kinase inhibitor library screening, IGR37 XP, 10μΜ ([6]; IGR37 XP, 10μΜ) [%]	Cell viability in kinase inhibitor library screening, IGR37 XP, 1μΜ ([6]; IGR37 XP, in %)	other results
O=c1sn(-c2cccc3ccccc23)c(=O)n1Cc1ccccc1 [Tideglusib]																			viability at 1 µM ([1]; Homo sapiens, A-375, 72 h, read-out: cell viability, A375 XP, 1μΜ): 105%; viability at 10 µM ([1]; Homo sapiens, A-375, 72 h, read-out: cell viability, A375 XP, 10μΜ): 108%; viability at 1 µM ([2]; Homo sapiens, A-375, 72 h, read-out: cell viability, A375 GP, 1μΜ): 98.4%; viability at 10 µM ([2]; Homo sapiens, A-375, 72 h, read-out: cell viability, A375 GP, 10μΜ): 97.5%; viability at 1 µM (A375 cells (parental); Homo sapiens, A-375, 72 h, read-out: cell viability, A375 Parental, 1μΜ): 95.4%; viability at 10 µM (A375 cells (parental); Homo sapiens, A-375, 72 h, read-out: cell viability, A375 Parental, 10μΜ): 97.4%; viability at 1 µM ([3]; Homo sapiens, 72 h, read-out: cell viability, 501Mel XP, 1μΜ): 98.8%; viability at 10 µM ([3]; Homo sapiens, 72 h, read-out: cell viability, 501Mel XP, 10μΜ): 90.4%; viability at 1 µM ([4]; Homo sapiens, 72 h, read-out: cell viability, 501Mel GP, 1μΜ): 102%; viability at 10 µM ([4]; Homo sapiens, 72 h, read-out: cell viability, 501Mel GP, 10μΜ): 91.6%; viability at 1 µM ([5]; Homo sapiens, IGR-37, 72 h, read-out: cell viability, IGR37 GP, 1μΜ): 94.6%; viability at 10 µM ([5]; Homo sapiens, IGR-37, 72 h, read-out: cell viability, IGR37 GP, 10μΜ): 95.9%; viability at 1 µM (501Mel cells (parental); Homo sapiens, 72 h, read-out: cell viability, 501Mel Parental, 1μΜ): 110%; viability at 10 µM (501Mel cells (parental); Homo sapiens, 72 h, read-out: cell viability, 501Mel Parental, 10μΜ): 105%; viability at 1 µM (IGR37 cells (parental); Homo sapiens, IGR-37, 72 h, read-out: cell viability, IGR37 Parental, 1μΜ): 103%; viability at 10 µM (IGR37 cells (parental); Homo sapiens, IGR-37, 72 h, read-out: cell viability, IGR37 Parental, 10μΜ): 99.7%; viability at 1 µM ([6]; Homo sapiens, IGR-37, 72 h, read-out: cell viability, IGR37 XP, 1μΜ): 96.4%; viability at 10 µM ([6]; Homo sapiens, IGR-37, 72 h, read-out: cell viability, IGR37 XP, 10μΜ): 74.1%
COc1ccc2cc(-c3nc(-c4ccc([S+](C)[O-])cc4)[nH]c3-c3ccncc3)ccc2c1 (stereo not shown) [Tie2 kinase inhibitor]																			cell viability (kinase inhibitor library screening) ([1]; A375 XP, 10μΜ, in %): 97.1; cell viability (kinase inhibitor library screening) ([2]; 1μΜ): 96.7; cell viability (kinase inhibitor library screening) ([2]; 10μΜ): 82.6; cell viability (kinase inhibitor library screening) (A375 cells (parental); A375 Parental, 10μΜ, in %): 96.4; cell viability (kinase inhibitor library screening) ([3]; 1μΜ): 96.5; cell viability (kinase inhibitor library screening) ([3]; 10μΜ): 64.5; cell viability (kinase inhibitor library screening) ([4]; 1μΜ): 107.0; cell viability (kinase inhibitor library screening) ([4]; 10μΜ): 87.5; cell viability (kinase inhibitor library screening) ([5]; IGR37 GP, 1μΜ, in %): 94.1; cell viability (kinase inhibitor library screening) (501Mel cells (parental); 1μΜ): 96.1; cell viability (kinase inhibitor library screening) (501Mel cells (parental); 10μΜ): 90.5; cell viability (kinase inhibitor library screening) (IGR37 cells (parental); IGR37 Parental, 10μΜ, in %): 103.5; cell viability (kinase inhibitor library screening) ([6]; IGR37 XP, 10μΜ, in %): 62.0
CCC(=O)N1CCN(c2ccc(-n3c(=O)ccc4cnc5ccc(-c6cnc7ccccc7c6)cc5c43)cc2C(F)(F)F)CC1 [Torin 1]	20.4	13.4	22.1	6.9	7.2	20.5	14.1	2.6	20.9	10.6	12.5	40.0	15.1	3.3	23.8	10.7	5.2	30.3	
Nc1ccc(-c2ccc3ncc4ccc(=O)n(-c5cccc(C(F)(F)F)c5)c4c3c2)cn1 [Torin 2]	12.1	2.9	7.9	4.0	3.6	10.7	3.5	0.164	10.9	0.7	2.7	20.7	5.6	0.8	13.2	0.851	1.3	14.1	
